Test results from patent US7560096B2, “Diagnostic procedures using direct injection of gaseous hyperpolarized 129Xe and associated systems and products” (Medi-Physics, Inc, priority 2000, dated 2009).
Like-named read-outs stand apart in the source and are kept apart here. Blank lines part the entries; values can stand above or below the compound they belong to.

Columns and labels:
[1] = Relaxation time (T1) of polarized 129Xe in blood and lung; format: physicochemical, human
Source text: Further, the hyperpolarized state of the gas is sensitive and can decay relatively quickly due to a number of relaxation mechanisms. Indeed, the relaxation time (generally represented by a decay constant “T1”) of the ^129Xe in the blood, absent other external depolarizing factors, is estimated at T1=4.0 seconds for venous blood and T1=6.4 s for arterial blood at a magnetic field strength of about 1.5 Tesla. See Wolber et al., Spin-lattice relaxation of laser-polarized xenon in human blood, 96 Proc. Natl. Acad. Sci. USA, pp. 3664-3669 (March 1999). (The more oxygenated arterial blood provides increased polarization life over the relatively de-oxygenated venous blood). Therefore, for about a 5 second transit time (the time estimate for the uptaken hyperpolarized ^129Xe to travel to the brain from the pulmonary vessels), the ^129Xe polarization is reduced to about 37% of its original value. In addition, the relaxation time of the polarized ^129Xe in the lung itself is typically about 20-25 seconds due to the presence of paramagnetic oxygen. Accordingly, ^129Xe taken up in the latter portion of the breath-hold cycle can decay to have only about 50% of the starting polarization (the polarization level at the initial portion of the breath hold cycle). Thus, generally stated, the average polarization of ^129Xe entering the pulmonary blood can be estimated to be at about 75% of the starting inhaled polarization value. Taking these effects into account, the delivery to the brain of the inhaled ^129Xe can be estimated as about 1.4 cubic centimeters of the inhaled one-liter dose of ^129Xe polarized to the same level as the inhaled gas (0.75×0.37×5 cc's). […] Nonetheless, at least one researcher has made coarse images of ^129Xe in rat brains, but this inhalation administration delivery required large quantities of ^129Xe to be inhaled over a relatively long period of time. […] Unfortunately, the extended inhalation time period and/or associated large quantity dosage of the gas may not be desirable for certain clinical applications.

[2] = NMR spectra after polarized 129Xe gas injection into the vein of a rabbit; format: in vivo
Source text: The signal strength at 8 seconds (FIG. 10P) being about 0.65 that of the original signal (FIG. 10A).
The rabbit survived the experiment. […] The signal strength at 8 seconds (FIG. 10P) being about 0.65 that of the original signal (FIG. 10A). The rabbit was placed in a whole body imager so that the exact location of the signal within the rabbit's body is not disclosed in the spectra. It is noted that a large quantity of the injected gas remained in the gas phase upon injection, most likely due to the size of the lumen used, about 0.5 mm.

[3] = Inhalation (breath-hold) delivery of hyperpolarized 129Xe: uptake and delivery to the brain; format: in vivo, human
Source text: In addition, due to the high solubility of ^129Xe in blood and tissues, vascular and tissue imaging using inhaled hyperpolarized ^129Xe has also been proposed. Generally described, during inhalation delivery, a quantity of hyperpolarized ^129Xe is inhaled by a subject (a subject breathes in the ^129Xe gas) and the subject then holds his or her breath for a short period of time, i.e., a “breath-hold” delivery. This inhaled ^129Xe gas volume then exits the lung space and is generally taken up by the pulmonary vessels and associated blood or pulmonary vasculature at a rate of approximately 0.3% per second. For example, for an inhaled quantity of about 1 liter of hyperpolarized ^129Xe, an estimated uptake is about 3 cubic centimeters per second or a total quantity of about 40 cubic centimeters of ^129Xe over about a 15 second breath-hold period. Accordingly, it has been noted that such uptake can be used to generate images of pulnonary vasculature or even organ systems more distant from the lungs. See co-pending and co-assigned U.S. patent application Ser. No. 09/271,476 to Driehuys et al, entitled Methods for Imaging Pulmonary and Cardiac Vasculature and Evaluating Blood Flow Using Dissolved Polarized ^129Xe. Although primarily directed to inhalation delivery, this application also proposes injection of ^129Xe to replace conventional radioactive tracers in perfusion imaging methods. The contents of this application are hereby incorporated by reference as if recited in full herein.
Many researchers are also interested in the possibility of using inhaled ^129Xe for imaging white matter perfusion in the brain, renal perfusion, and the like. While the inhaled delivery ^129Xe methods are suitable, and indeed, preferable, for many MRI applications for several reasons, such as the non-invasive characteristics attendant with such a delivery to a human subject, it may not be the most efficient method to deliver a sufficiently large dose to more distant (away from the pulmonary vasculature which is proximate to the lungs) target areas of interest. In addition, due to the dilution of the inhaled ^129Xe along the perfusion delivery path, relatively large quantities of the hyperpolarized ^129Xe are typically inhaled in order to deliver a small fraction of the gas to the more distal target sites or organ systems. For example, the brain typically receives only about 13% of the total blood flow in the human body. Thus, the estimated 40 cubic centimeter quantity of hyperpolarized ^129Xe taken up into the pulmonary vessels from the 1-liter inhalation dose can be reduced to only about 5 cubic centimeters by the time it reaches the brain.
Further, the hyperpolarized state of the gas is sensitive and can decay relatively quickly due to a number of relaxation mechanisms. Indeed, the relaxation time (generally represented by a decay constant “T1”) of the ^129Xe in the blood, absent other external depolarizing factors, is estimated at T1=4.0 seconds for venous blood and T1=6.4 s for arterial blood at a magnetic field strength of about 1.5 Tesla. See Wolber et al., Spin-lattice relaxation of laser-polarized xenon in human blood, 96 Proc. Natl. Acad. Sci. USA, pp. 3664-3669 (March 1999). (The more oxygenated arterial blood provides increased polarization life over the relatively de-oxygenated venous blood). […]

[4] = Relaxation of hyperpolarized gas on container surface materials (GE180 glass, high purity aluminum); format: physicochemical; details: for ψ (relaxivity of GE180 glass for the gas): from T1 and A/V=3/R
Source text: In order to calculate optimal capillary lengths, relaxivity values or estimates are needed. As a simple estimate, one can consider that an 180 cc spherical chamber of GE180 glass has a relaxation times of about 40 hr for ^3He and about 2 hr for ^129Xe. Knowing the relationship of “A/V=3/R” for a sphere, one can determine the relaxivity ψ of GE180 glass for both gases. The diffusion coefficients are noted for reference below.
The gas contacting surfaces of the injector head 300 can be formed of or coated with suitable materials to inhibit the depolarization of the gas as it travels therethrough. Examples of suitable materials include, but are not limited to, alumminosilicate glass, certain polymer materials or metallic materials or other materials as described herein. Surface coatings, such as a sputter coating of a non-depolarizing material of high purity silver or aluminum. The relaxivity of high purity aluminum for ^129Xe has been recently measured to be about 0.00225 cm/min. Metals other than aluminum which can be used include indium, gold, zinc, tin, copper, bismuth, silver, niobium, and oxides thereof. Preferably, “high purity” metals are employed (i.e., metals which are substantially free of paramagnetic or ferrous impurities) because even minute amounts of undesirable materials or contaminants may degrade the surface. Preferably, the metal is chosen such that it is well below 1 ppm in ferrous or paramagnetic impurity content.

[5] = cited from earlier work
[6] = Bubble dissipation model (Krogh's coefficient) for gas bubbles in blood
Source text: To better understand bubble dissipation, one can model a string of contiguous bubbles as a cylinder to look at the diffusion of the gas out of the “cylinder” into the surrounding fluid to analyze how the bubble volume or radius decreases with time. Presser et al., in modeling a simulation as stated above, noted that the bubble radius “r” versus time can be represented by the equation: dr/dt=−KΔP/[rln(R/r)] where “K” is Krogh's coefficient (the product of solubility “S” and diffusion coefficient “D” of the gas in the surrounding fluid), “ΔP” is the pressure difference between gas in the bubbles and gas in the alveoli and “R” is the distance from the center of the bubbles to the inner edge of the adjacent alveoli.
That is, for comparative analysis, it is believed that one can evaluate the Krogh's coefficient (S×D) for Xe relative to air. The diffusion coefficient is substantially the same and can be cancelled out. For example, Xe in H2O is about 1.9×10^−5 cm^2/s while methane and water itself are at 2 and 2.3×10^−5 cm^2/s, respectively. Thus, solubility “S” becomes the important factor.

[7] = noted for reference; cited from earlier work
[8] = inhalation, breath-hold; cited from earlier work
[9] = cited from earlier work; remark: listed apart in the source
[10] = Solubilities of gases in water, plasma, blood and tissues; format: physicochemical
Source text: The feasibility of gaseous ^129Xe injection, particularly for arterial injections, may appear problematic. For example, it is known that arterial injections of air can lead to an undesirable air embolus. Although with intravenous (IV) injection the introduction of air is less of a concern, great care is typically taken to avoid such occurrences. The injection of CO2 is successful because of its high solubility in blood and the body's unique ability to remove it. The solubility of CO2 in blood and plasma can be difficult to measure because it is chemically metabolized.
Nonetheless, it is believed that the solubility that is of primary interest for the discussion herein and that the CO2 metabolism can be disregarded for the purposes of this comparison.

Compound: [129Xe] [^129Xe]
- Polarization remaining relative to original value after transit to the brain ([1]; about 5 second transit time from pulmonary vessels to brain): about 37%
- Average polarization of 129Xe entering the pulmonary blood, of starting inhaled polarization ([1]; inhalation, breath-hold): about 75%
- Polarization of 129Xe taken up in the latter portion of the breath-hold cycle, of starting polarization ([1]; latter portion of breath-hold): about 50%
- Survival of the animal ([2]; about 3 cc gas injected into vein of rabbit): survived
- Phase of the injected gas in the bloodstream during acquisition ([2]; about 3 cc into vein of rabbit, about 8 seconds): remained substantially in the gas phase
- T1 of the gas in the blood ([2]; gas phase in the bloodstream, rabbit): at least 20 seconds
- Quantity by the time it reaches the brain ([3]; from 40 cc taken up of 1-liter inhalation dose, brain receives about 13% of blood flow): about 5 cubic centimeters
- Quantity delivered to remote target (brain) as fraction of inhaled 129Xe ([3]; inhalation): about 0.14%
- Total quantity taken up ([3]; inhaled about 1 liter, about 15 second breath-hold): about 40 cubic centimeters
- Delivery to the brain, as 129Xe polarized to the same level as the inhaled gas ([3]; inhaled one-liter dose (0.75×0.37×5 cc's)): about 1.4 cubic centimeters
- Estimated uptake ([3]; inhaled quantity about 1 liter): about 3 cubic centimeters per second
- ψ (relaxivity of GE180 glass for the gas) [4]: 0.00017 cm/s
- Relaxivity of high purity aluminum for 129Xe ([4]; high purity aluminum surface): about 0.00225 cm/min
- Relaxation time T1 in arterial blood ([5]; arterial blood, about 1.5 Tesla): 6.4 s
- Relaxation time in the lung ([5]; in the lung, presence of paramagnetic oxygen): 20 to 25 s
- Relaxation time T1 in venous blood ([5]; venous blood, about 1.5 Tesla): 4.0 s
- Bubble dissipation rate relative to air in blood ([6]; in blood, faster than air): about 11 times
- D (diffusion coefficient of the gas) [7]: 0.065 cm^2/s
- Rate of uptake of inhaled gas by pulmonary vessels and blood [8]: approximately 0.3 % per second

- Time for a 30 μm radius bubble to dissipate ([6]; 30 μm radius bubble): about 20 seconds
- Bubble dissipation rate (dr/dt) ([6]; estimated from solubility ratio to air in blood): −1.5 μm/s
- Solubility ratio of xenon gas to nitrogen gas in blood ([10]; 0.167/[…], air approximated as nitrogen): ~11
- Solubility relative to air ([10]; in blood, compared with air): about 10 times
Compound: [Xe] [Xe, xenon]
- Diffusion coefficient in H2O [9]: about 1.9×10^−5 cm^2/s

Compound: C [methane]
- Diffusion coefficient in H2O ([9]; exponent shared with the following value): 2 ×10^−5 cm^2/s

- ψ (relaxivity of GE180 glass for the gas) [4]: 8.1e-06 cm/s
Compound: [3He] [^3He, reference compound]
- D (diffusion coefficient of the gas) [7]: 2.05 cm^2/s

Compound: O [water]
- Diffusion coefficient in H2O [9]: 2.3×10^−5 cm^2/s
